Assay results taken from US20060069132A1, “Azolecarboxamide herbicides” (priority 2004, published 2006).

Legend:
morningglory = assay: Test B pre-/postemergence herbicide test; assay type: in vivo, Ipomoea coccinea; details: for Plant response rating (0 to 100 scale), Morningglory: 0 is no effect, 100 is complete control, preemergence; for Morningglory plant response rating: scale 0 (no effect) to 100 (complete control)
How it was run: (§1)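 Greenhouse pot assay with simultaneous preemergence (treated seed) and postemergence (2–18 cm seedlings) applications of surfactant-containing, non-phytotoxic solvent formulations. Response scored visually 13–15 days later on a 0–100 scale, 100 meaning complete control.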

lambsquarters = assay: Test B pre-/postemergence herbicide test; assay type: in vivo, Chenopodium album; details: for Plant response rating (0 to 100 scale), Lambsquarters: 0 is no effect, 100 is complete control, preemergence; for Lambsquarters plant response rating: scale 0 (no effect) to 100 (complete control)
How it was run: as §1

[1] = test system: smallflower umbrella sedge; assay: Test C flooded paddy test; assay type: in vivo, Cyperus difformis; details: for Plant response rating, Sedge, Umbrella: 500 g ai/ha, visual rating after 12 to 14 days
large crabgrass = assay: Test B pre-/postemergence herbicide test; assay type: in vivo, Digitaria sanguinalis; details: for Plant response rating (0 to 100 scale), Crabgrass, Large: 0 is no effect, 100 is complete control, preemergence; for Crabgrass, Large plant response rating: scale 0 (no effect) to 100 (complete control)
How it was run: as §1

wheat = assay: Test B postemergence herbicide test; assay type: in vivo, Triticum aestivum; design: key to Wheat plant response rating: 0 = no effect, 100 = complete control
How it was run: (§2)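 Read-out: visual comparison with controls, scored 0 to 100, where 100 means complete control and 0 no effect. Formulated chemicals were applied postemergence to plants 2–18 cm tall (1- to 4-leaf), or to flooded-paddy plants at the 2-leaf stage, then held 13 to 15 days under glass.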

barnyardgrass [2] = assay: Test B flooded paddy test; assay type: in vivo, Echinochloa crus-galli; details: 1000 g ai/ha, scale 0 to 100 (0 no effect, 100 complete control)
How it was run: (§3)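 Greenhouse test; postemergence application to plants at 1–4 leaves (2–18 cm); paddy species at 2 leaves; evaluated visually vs controls at 13–15 days; scale 0–100 (100 = complete control).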

cocklebur = assay: Test B pre-/postemergence herbicide test; assay type: in vivo, Xanthium strumarium; details: for Plant response rating (0 to 100 scale), Cocklebur: 0 is no effect, 100 is complete control, preemergence; for Cocklebur plant response rating: scale 0 (no effect) to 100 (complete control)
How it was run: as §1

ducksalad [3] = assay: Test B flooded paddy test; assay type: in vivo, Heteranthera limosa; details: 1000 g ai/ha, scale 0 to 100 (0 no effect, 100 complete control)
How it was run: as §3

[4] = test system: small flower umbrella sedge; assay: Test B flooded paddy test; assay type: in vivo, Cyperus difformis; details: 1000 g ai/ha, scale 0 to 100 (0 no effect, 100 complete control)
How it was run: as §3

blackgrass = assay: Test B postemergence herbicide test; assay type: in vivo, Alopecurus myosuroides; details: scale 0 (no effect) to 100 (complete control)
How it was run: as §3

corn = assay: Test B pre-/postemergence herbicide test; assay type: in vivo, Zea mays; details: for Plant response rating (0 to 100 scale), Corn: 0 is no effect, 100 is complete control, preemergence; for Corn plant response rating: scale 0 (no effect) to 100 (complete control)
How it was run: as §1

rice [5] = assay: Test C flooded paddy test; assay type: in vivo, Oryza sativa; details: for Plant response rating, Rice: 500 g ai/ha, visual rating after 12 to 14 days
How it was run: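 Postemergence sprays applied to plants 2 to 18 cm tall (1- to 4-leaf stage); paddy species grown to 2-leaf stage under flooding. After 12 to 14 days in greenhouse, visual rating versus untreated controls on 0–100 scale (0 no effect, 100 complete control).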

Surinam grass = assay: Test B pre-/postemergence herbicide test; assay type: in vivo, Urochloa decumbens; details: for Plant response rating (0 to 100 scale), Surinam Grass: 0 is no effect, 100 is complete control, preemergence; for Surinam Grass plant response rating: scale 0 (no effect) to 100 (complete control)
How it was run: as §1

giant foxtail = assay: Test B pre-/postemergence herbicide test; assay type: in vivo, Setaria faberi; details: for Plant response rating (0 to 100 scale), Foxtail, Giant: 0 is no effect, 100 is complete control, preemergence; for Foxtail, Giant plant response rating: scale 0 (no effect) to 100 (complete control)
How it was run: as §1

barnyardgrass [6] = assay: Test B pre-/postemergence herbicide test; assay type: in vivo, Echinochloa crus-galli; details: for Plant response rating (0 to 100 scale), Barnyardgrass: 0 is no effect, 100 is complete control, preemergence; for Barnyardgrass plant response rating: scale 0 (no effect) to 100 (complete control)
How it was run: as §1

barnyardgrass [7] = assay: Test C flooded paddy test; assay type: in vivo, Echinochloa crus-galli; details: for Plant response rating, Barnyardgrass: 500 g ai/ha, visual rating after 12 to 14 days
How it was run: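 Postemergence sprays were applied to plants 2 to 18 cm tall (1- to 4-leaf stage); in the flooded paddy test, barnyardgrass was grown to the 2-leaf stage. After 12 to 14 days in a greenhouse, injury was visually rated against untreated controls on a 0–100 scale (100 = complete control).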

wild oat = assay: Test B postemergence herbicide test; assay type: in vivo, Avena fatua; details: scale 0 (no effect) to 100 (complete control)
How it was run: as §2

ducksalad [8] = assay: Test C flooded paddy test; assay type: in vivo, Heteranthera limosa; details: for Plant response rating, Ducksalad: 500 g ai/ha, visual rating after 12 to 14 days
pigweed = assay: Test B pre-/postemergence herbicide test; assay type: in vivo, Amaranthus retroflexus; details: for Plant response rating (0 to 100 scale), Pigweed: 0 is no effect, 100 is complete control, preemergence; for Pigweed plant response rating: scale 0 (no effect) to 100 (complete control)
How it was run: as §1

velvetleaf = assay: Test B pre-/postemergence herbicide test; assay type: in vivo, Abutilon theophrasti; details: for Plant response rating (0 to 100 scale), Velvetleaf: 0 is no effect, 100 is complete control, preemergence; for Velvetleaf plant response rating: scale 0 (no effect) to 100 (complete control)
How it was run: as §1

rice [9] = assay: Test B flooded paddy test; assay type: in vivo, Oryza sativa; details: 1000 g ai/ha, scale 0 to 100 (0 no effect, 100 complete control)
How it was run: as §3

[10] = 125 g ai/ha, visual rating, postemergence
[11] = 125 g ai/ha, scale 0 to 100 (0 no effect, 100 complete control)
[12] = 250 g ai/ha, scale of 0 to 100, 0 is no effect, 100 is complete control
[13] = scale 0 to 100 (0 no effect, 100 complete control)
[14] = 125 g ai/ha, visual rating, scale 0 (no effect) to 100 (complete control), postemergence
[15] = 500 g ai/ha, scale 0 to 100, 0 no effect, 100 complete control, preemergence
[16] = Postemergence, 500 g ai/ha, scale 0 (no effect) to 100 (complete control)
[17] = 62 g ai/ha, scale 0 to 100 (0 no effect, 100 complete control)

C#CCNC(=O)c1cccc(NC(=O)c2nn(C(C)(C)C)nc2C)c1 [Compound 394]
Plant response rating (0 to 100 scale), Morningglory (morningglory; 125 g ai/ha): 0
Morningglory plant response rating (morningglory; [10]): 20
Morningglory plant response rating (morningglory; Postemergence, 500 g ai/ha): 20
Plant response rating (0 to 100 scale), Lambsquarters (lambsquarters; 125 g ai/ha): 10
Lambsquarters plant response rating (lambsquarters; [10]): 30
Lambsquarters plant response rating (lambsquarters; Postemergence, 500 g ai/ha): 60
Sedge, Umbrella plant response rating ([1]; 62 g ai/ha, scale 0 to 100): 0
Sedge, Umbrella plant response rating [1, 11]: 35
Sedge, Umbrella plant response rating [1, 12]: 60
Plant response rating, Sedge, Umbrella [1, 13]: 70
Plant response rating (0 to 100 scale), Crabgrass, Large (large crabgrass; 125 g ai/ha): 40
Crabgrass, Large plant response rating (large crabgrass; [10]): 10
Crabgrass, Large plant response rating (large crabgrass; Postemergence, 500 g ai/ha): 20
Wheat plant response rating (wheat; [14]): 0
Wheat plant response rating (wheat; [15]): 20
Wheat plant response rating (wheat; [16]): 0
Barnyardgrass plant response rating (barnyardgrass [2]): 70
Plant response rating (0 to 100 scale), Cocklebur (cocklebur; 125 g ai/ha): 20
Cocklebur plant response rating (cocklebur; [10]): 10
Cocklebur plant response rating (cocklebur; Postemergence, 500 g ai/ha): 20
Ducksalad plant response rating (ducksalad [3]): 80
Sedge, Umbrella plant response rating [4]: 90
Blackgrass plant response rating (blackgrass; [10]): 0
Blackgrass plant response rating (blackgrass; Postemergence, 500 g ai/ha): 20
Plant response rating (0 to 100 scale), Corn (corn; 125 g ai/ha): 0
Corn plant response rating (corn; [10]): 0
Corn plant response rating (corn; Postemergence, 500 g ai/ha): 10
Rice plant response rating (rice [5]; 62 g ai/ha, scale 0 to 100): 0
Rice plant response rating (rice [5]; [11]): 0
Rice plant response rating (rice [5]; [12]): 45
Plant response rating, Rice (rice [5]; [13]): 60
Plant response rating (0 to 100 scale), Surinam Grass (Surinam grass; 125 g ai/ha): 10
Surinam Grass plant response rating (Surinam grass; [10]): 10
Surinam Grass plant response rating (Surinam grass; Postemergence, 500 g ai/ha): 20
Plant response rating (0 to 100 scale), Foxtail, Giant (giant foxtail; 125 g ai/ha): 10
Foxtail, Giant plant response rating (giant foxtail; [10]): 20
Foxtail, Giant plant response rating (giant foxtail; Postemergence, 500 g ai/ha): 30
Plant response rating (0 to 100 scale), Barnyardgrass (barnyardgrass [6]; 125 g ai/ha): 30
Barnyardgrass plant response rating (barnyardgrass [6]; [10]): 0
Barnyardgrass plant response rating (barnyardgrass [6]; Postemergence, 500 g ai/ha): 10
Barnyardgrass plant response rating (barnyardgrass [7]; [17]): 0
Barnyardgrass plant response rating (barnyardgrass [7]; [11]): 0
Barnyardgrass plant response rating (barnyardgrass [7]; [12]): 0
Plant response rating, Barnyardgrass (barnyardgrass [7]; [13]): 20
Oat, Wild plant response rating (wild oat; [10]): 0
Oat, Wild plant response rating (wild oat; Postemergence, 500 g ai/ha): 0
Ducksalad plant response rating (ducksalad [8]; 62 g ai/ha, scale 0 to 100): 0
Ducksalad plant response rating (ducksalad [8]; [11]): 0
Ducksalad plant response rating (ducksalad [8]; [12]): 10
Plant response rating, Ducksalad (ducksalad [8]; [13]): 45
Plant response rating (0 to 100 scale), Pigweed (pigweed; 125 g ai/ha): 10
Pigweed plant response rating (pigweed; [10]): 30
Pigweed plant response rating (pigweed; Postemergence, 500 g ai/ha): 60
Plant response rating (0 to 100 scale), Velvetleaf (velvetleaf; 125 g ai/ha): 0
Velvetleaf plant response rating (velvetleaf; [10]): 10
Velvetleaf plant response rating (velvetleaf; Postemergence, 500 g ai/ha): 30
Rice plant response rating (rice [9]): 60

Cc1nn(C(C)C)nc1C(=O)Nc1cccc(C(=O)N(C)C)c1 [Compound 404]
Plant response rating (0 to 100 scale), Morningglory (morningglory; 125 g ai/ha): 60
Morningglory plant response rating (morningglory; [10]): 20
Morningglory plant response rating (morningglory; Postemergence, 500 g ai/ha): 70
Plant response rating (0 to 100 scale), Lambsquarters (lambsquarters; 125 g ai/ha): 90
Lambsquarters plant response rating (lambsquarters; [10]): 60
Lambsquarters plant response rating (lambsquarters; Postemergence, 500 g ai/ha): 80
Sedge, Umbrella plant response rating ([1]; 62 g ai/ha, scale 0 to 100): 70
Sedge, Umbrella plant response rating [1, 11]: 75
Sedge, Umbrella plant response rating [1, 12]: 80
Plant response rating, Sedge, Umbrella [1, 13]: 85
Plant response rating (0 to 100 scale), Crabgrass, Large (large crabgrass; 125 g ai/ha): 70
Crabgrass, Large plant response rating (large crabgrass; [10]): 0
Crabgrass, Large plant response rating (large crabgrass; Postemergence, 500 g ai/ha): 10
Wheat plant response rating (wheat; [14]): 0
Wheat plant response rating (wheat; [15]): 100
Wheat plant response rating (wheat; [16]): 0
Barnyardgrass plant response rating (barnyardgrass [2]): 90
Plant response rating (0 to 100 scale), Cocklebur (cocklebur; 125 g ai/ha): 40
Cocklebur plant response rating (cocklebur; [10]): 10
Cocklebur plant response rating (cocklebur; Postemergence, 500 g ai/ha): 30
Ducksalad plant response rating (ducksalad [3]): 90
Sedge, Umbrella plant response rating [4]: 90
Blackgrass plant response rating (blackgrass; [10]): 10
Blackgrass plant response rating (blackgrass; Postemergence, 500 g ai/ha): 30
Plant response rating (0 to 100 scale), Corn (corn; 125 g ai/ha): 0
Corn plant response rating (corn; [10]): 0
Corn plant response rating (corn; Postemergence, 500 g ai/ha): 10
Rice plant response rating (rice [5]; 62 g ai/ha, scale 0 to 100): 0
Rice plant response rating (rice [5]; [11]): 0
Rice plant response rating (rice [5]; [12]): 45
Plant response rating, Rice (rice [5]; [13]): 50
Plant response rating (0 to 100 scale), Surinam Grass (Surinam grass; 125 g ai/ha): 40
Surinam Grass plant response rating (Surinam grass; [10]): 0
Surinam Grass plant response rating (Surinam grass; Postemergence, 500 g ai/ha): 10
Plant response rating (0 to 100 scale), Foxtail, Giant (giant foxtail; 125 g ai/ha): 30
Foxtail, Giant plant response rating (giant foxtail; [10]): 10
Foxtail, Giant plant response rating (giant foxtail; Postemergence, 500 g ai/ha): 40
Plant response rating (0 to 100 scale), Barnyardgrass (barnyardgrass [6]; 125 g ai/ha): 70
Barnyardgrass plant response rating (barnyardgrass [6]; [10]): 10
Barnyardgrass plant response rating (barnyardgrass [6]; Postemergence, 500 g ai/ha): 10
Barnyardgrass plant response rating (barnyardgrass [7]; [17]): 0
Barnyardgrass plant response rating (barnyardgrass [7]; [11]): 0
Barnyardgrass plant response rating (barnyardgrass [7]; [12]): 20
Plant response rating, Barnyardgrass (barnyardgrass [7]; [13]): 30
Oat, Wild plant response rating (wild oat; [10]): 0
Oat, Wild plant response rating (wild oat; Postemergence, 500 g ai/ha): 10
Ducksalad plant response rating (ducksalad [8]; 62 g ai/ha, scale 0 to 100): 10
Ducksalad plant response rating (ducksalad [8]; [11]): 10
Ducksalad plant response rating (ducksalad [8]; [12]): 20
Plant response rating, Ducksalad (ducksalad [8]; [13]): 30
Plant response rating (0 to 100 scale), Pigweed (pigweed; 125 g ai/ha): 70
Pigweed plant response rating (pigweed; [10]): 10
Pigweed plant response rating (pigweed; Postemergence, 500 g ai/ha): 30
Plant response rating (0 to 100 scale), Velvetleaf (velvetleaf; 125 g ai/ha): 20
Velvetleaf plant response rating (velvetleaf; [10]): 30
Velvetleaf plant response rating (velvetleaf; Postemergence, 500 g ai/ha): 30
Rice plant response rating (rice [9]): 60
